Data reported in PubChem BioAssay AID192 (DTP/NCI, 2004).
Where “and” joins values, the source holds several entries; their conditions need not be identical. Identical values can stand only once. Toxic doses and inconclusive results are not listed.

Tested on: BDF1 mice, B16 melanoma ip, median survival T/C
Experiment: NCI In Vivo Anticancer Drug Screen. Data for tumor model B16 Melanoma (intraperitoneal) in B6D2F1 (BDF1) mice
Conditions: endpoint: median survival time, higher = longer survival
How it was run: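 Read-out: survival or tumor size, given as treated/control ratio. Controls received vehicle only; animals bore transplantable tumors.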

[1] = dose: 100.0 mg/kg/injection, schedule: Q01DX009 (ip), vehicle: Klucel (hydroxypropylcellulose) (HPC)
[2] = dose: 200.0 mg/kg/injection, schedule: Q01DX009 (ip), vehicle: Klucel (hydroxypropylcellulose) (HPC)
[3] = dose: 50.0 mg/kg/injection, schedule: Q01DX009 (ip), vehicle: saline with Tween-80
[4] = dose: 12.5 mg/kg/injection, schedule: Q01DX009 (ip), vehicle: Klucel (hydroxypropylcellulose) (HPC)
[5] = dose: 25.0 mg/kg/injection, schedule: Q01DX009 (ip), vehicle: Klucel (hydroxypropylcellulose) (HPC)
[6] = dose: 50.0 mg/kg/injection, schedule: Q01DX009 (ip), vehicle: Klucel (hydroxypropylcellulose) (HPC)
[7] = dose: 12.5 mg/kg/injection, schedule: Q01DX009 (ip), vehicle: saline with Tween-80
[8] = dose: 3.12 mg/kg/injection, schedule: Q01DX009 (ip), vehicle: Klucel (hydroxypropylcellulose) (HPC)
[9] = dose: 6.25 mg/kg/injection, schedule: Q01DX009 (ip), vehicle: Klucel (hydroxypropylcellulose) (HPC)
[10] = dose: 100.0 mg/kg/injection, schedule: Q01DX009 (ip), vehicle: saline
[11] = dose: 200.0 mg/kg/injection, schedule: Q01DX009 (ip), vehicle: saline
[12] = dose: 6.25 mg/kg/injection, schedule: Q01DX009 (ip), vehicle: water
[13] = dose: 12.5 mg/kg/injection, schedule: Q01DX009 (ip), vehicle: water
[14] = dose: 25.0 mg/kg/injection, schedule: Q01DX009 (ip), vehicle: saline with Tween-80
[15] = dose: 100.0 mg/kg/injection, schedule: Q01DX009 (ip), vehicle: saline with Tween-80
[16] = dose: 200.0 mg/kg/injection, schedule: Q01DX009 (ip), vehicle: saline with Tween-80
[17] = dose: 100.0 mg/kg/injection, schedule: Q04DX003 (ip), vehicle: saline
[18] = dose: 200.0 mg/kg/injection, schedule: Q04DX003 (ip), vehicle: saline

For `CC1c2cccc(Cl)c2C(=O)c2c(Cl)cccc21`, the T/C [1] was 102 % of control, the T/C [2] was 100 % of control and the T/C (dose: 400.0 mg/kg/injection, schedule: Q01DX009 (ip), vehicle: Klucel (hydroxypropylcellulose) (HPC)) was 102 % of control.
In the case of `CCCN(C)/N=N/c1[nH]ncc1C(N)=O`, the T/C (dose: 17.0 mg/kg/injection, schedule: Q01DX009 (ip), vehicle: saline with Tween-80) is reported as 114 % of control, the T/C (dose: 37.0 mg/kg/injection, schedule: Q01DX009 (ip), vehicle: saline with Tween-80) is reported as 111 % of control and the T/C [3] is reported as 121 % of control.
With `Nc1ccccc1N` the T/C [4] was 96 % of control, the T/C [5] was 98 % of control and the T/C (dose: 25.0 mg/kg/injection, schedule: Q02DX009 (ip), vehicle: saline with Tween-80) was 106 % of control. For the same molecule, the T/C [6] was 98 % of control, the T/C [1] was 102 % of control and the T/C (dose: 100.0 mg/kg/injection, schedule: Q02DX009 (ip), vehicle: saline with Tween-80) was 100 % of control. For the same molecule, the T/C (dose: 200.0 mg/kg/injection, schedule: Q02DX009 (ip), vehicle: saline with Tween-80) was 100 % of control.
In the case of `O=C(/C(=N\Nc1ccc([N+](=O)[O-])cc1)c1ccccc1)c1ccccc1`, the T/C (dose: 3.13 mg/kg/injection, schedule: Q01DX009 (ip), vehicle: saline with Tween-80) is reported as 100 % of control, the T/C (dose: 6.25 mg/kg/injection, schedule: Q01DX009 (ip), vehicle: saline with Tween-80) is reported as 95 % of control and the T/C [7] is reported as 90 % of control and 93 % of control. The T/C [3] was 90 % of control.
`Oc1ccc(/C=N/NC(=S)NN2CCOCC2)nc1` was tested, and the T/C [8] was 104 % of control, the T/C [9] was 103 % of control and the T/C [4] was 104 % of control. The T/C [5] was 108 % of control.
For `CC(=O)C(O)N1C(=O)C=CC1=O` (stereo not drawn), the T/C (dose: 0.32 mg/kg/injection, schedule: Q01DX009 (ip), vehicle: saline with Tween-80) was 100 % of control, the T/C (dose: 0.63 mg/kg/injection, schedule: Q01DX009 (ip), vehicle: saline with Tween-80) was 108 % of control and the T/C (dose: 1.25 mg/kg/injection, schedule: Q01DX009 (ip), vehicle: saline with Tween-80) was 111 % of control. The T/C (dose: 2.5 mg/kg/injection, schedule: Q01DX009 (ip), vehicle: saline with Tween-80) was 105 % of control and the T/C (dose: 5.0 mg/kg/injection, schedule: Q01DX009 (ip), vehicle: saline with Tween-80) was 105 % of control.
With `O=S(=O)(OCC(F)(F)F)c1ccccc1` the T/C [6] was 109 % of control, the T/C [1] was 100 % of control and the T/C [2] was 97 % of control.
With `CC(=O)C(N)CCC(=O)O` (stereo not drawn) the T/C (dose: 50.0 mg/kg/injection, schedule: Q01DX009 (ip), vehicle: saline) was 105 % of control, the T/C [10] was 113 % of control and the T/C [11] was 97 % of control.
`Cc1cc([N+](=O)[O-])c(S(N)(=O)=O)c([N+](=O)[O-])c1` was tested, and the T/C [12] was 110 % of control, the T/C [13] was 100 % of control and the T/C (dose: 25.0 mg/kg/injection, schedule: Q01DX009 (ip), vehicle: water) was 101 % of control. The T/C (dose: 50.0 mg/kg/injection, schedule: Q01DX009 (ip), vehicle: water) was 103 % of control and the T/C (dose: 100.0 mg/kg/injection, schedule: Q01DX009 (ip), vehicle: water) was 101 % of control.
`Clc1ccc2c(c1)-c1ccccc1C1=NCCN12` was tested, and the T/C (dose: 5.0 mg/kg/injection, schedule: Q01DX009 (ip), vehicle: saline) was 108 % of control and the T/C (dose: 10.0 mg/kg/injection, schedule: Q01DX009 (ip), vehicle: saline) was 118 % of control.
In the case of `N#CCCSC(=S)C1CCCC1=N` (stereo not drawn), the T/C [7] is reported as 112 % of control, the T/C [14] is reported as 106 % of control and the T/C [3] is reported as 103 % of control. The T/C [15] was 103 % of control and the T/C [16] was 108 % of control.
In the case of `COC(=O)Nc1cn2cc(C(=O)c3cccs3)ccc2n1`, the T/C (dose: 1.56 mg/kg/injection, schedule: Q01DX009 (ip), vehicle: Klucel (hydroxypropylcellulose) (HPC)) is reported as 93 % of control, the T/C [8] is reported as 98 % of control and the T/C [9] is reported as 104 % of control. For the same molecule, the T/C [4] was 113 % of control and the T/C [5] was 123 % of control.
With `COc1ccc(CCN2CCCC2C(=O)O)cc1OC` (stereo not drawn) the T/C [17] was 100 % of control, the T/C [18] was 105 % of control and the T/C (dose: 400.0 mg/kg/injection, schedule: Q04DX003 (ip), vehicle: saline) was 96 % of control.
In the case of `CC(=O)OC1CCC2(C)C(CC(=O)C(C)C23CCC2(C=COC2)O3)C1(C)C` (stereo not drawn), the T/C (dose: 6.0 mg/kg/injection, schedule: Q01DX009 (ip), vehicle: Klucel (hydroxypropylcellulose) (HPC)) is reported as 101 % of control, the T/C (dose: 12.0 mg/kg/injection, schedule: Q01DX009 (ip), vehicle: Klucel (hydroxypropylcellulose) (HPC)) is reported as 99 % of control and the T/C (dose: 24.0 mg/kg/injection, schedule: Q01DX009 (ip), vehicle: Klucel (hydroxypropylcellulose) (HPC)) is reported as 95 % of control. The T/C (dose: 48.0 mg/kg/injection, schedule: Q01DX009 (ip), vehicle: Klucel (hydroxypropylcellulose) (HPC)) was 99 % of control.
With `Nc1n[n+](-c2ccccc2)no1` the T/C (dose: 1.56 mg/kg/injection, schedule: Q01DX009 (ip), vehicle: water) was 102 % of control, the T/C (dose: 3.12 mg/kg/injection, schedule: Q01DX009 (ip), vehicle: water) was 89 % of control and the T/C (dose: 3.13 mg/kg/injection, schedule: Q01DX009 (ip), vehicle: water) was 96 % of control. The T/C [12] was 102 % of control and 105 % of control and the T/C [13] was 119 % of control.
In the case of `CCCNC(C)(C)C(SSS)c1cccs1` (stereo not drawn), the T/C (dose: 4.68 mg/kg/injection, schedule: Q04DX003 (ip), vehicle: saline) is reported as 97 % of control, the T/C (dose: 6.25 mg/kg/injection, schedule: Q01DX009 (ip), vehicle: alcohol) is reported as 111 % of control and the T/C (dose: 9.37 mg/kg/injection, schedule: Q04DX003 (ip), vehicle: saline) is reported as 106 % of control. The T/C (dose: 12.5 mg/kg/injection, schedule: Q01DX009 (ip), vehicle: alcohol) was 100 % of control, the T/C (dose: 18.75 mg/kg/injection, schedule: Q04DX003 (ip), vehicle: saline) was 107 % of control and the T/C (dose: 25.0 mg/kg/injection, schedule: Q01DX009 (ip), vehicle: alcohol) was 95 % of control. The T/C (dose: 50.0 mg/kg/injection, schedule: Q01DX009 (ip), vehicle: alcohol) was 91 % of control.
In the case of `CC(C)(O)C(C)(O)c1ccc(Cl)cc1` (stereo not drawn), the T/C [7] is reported as 88 % of control, the T/C [14] is reported as 91 % of control and the T/C [3] is reported as 103 % of control. The T/C [15] was 104 % of control and the T/C [16] was 92 % of control.
In the case of `Cc1nccc(=O)[nH]1`, the T/C [10] is reported as 90 % of control, the T/C [17] is reported as 117 % of control and the T/C [11] is reported as 107 % of control. For the same molecule, the T/C [18] was 100 % of control.
In the case of `O=NN(CCCl)C(=O)NC1CCC(=O)NC1=O` (stereo not drawn), the T/C (dose: 0.09 mg/kg/injection, schedule: Q01DX009 (ip), vehicle: saline) is reported as 114 % of control, the T/C (dose: 0.18 mg/kg/injection, schedule: Q01DX009 (ip), vehicle: saline) is reported as 111 % of control and the T/C (dose: 0.35 mg/kg/injection, schedule: Q01DX009 (ip), vehicle: saline) is reported as 118 % of control. For the same molecule, the T/C (dose: 0.7 mg/kg/injection, schedule: Q01DX009 (ip), vehicle: saline) was 114 % of control, the T/C (dose: 1.0 mg/kg/injection, schedule: Q01DX009 (ip), vehicle: saline with Tween-80) was 119 % of control and the T/C (dose: 1.1 mg/kg/injection, schedule: Q01DX009 (ip), vehicle: saline) was 152 % of control. The T/C (dose: 1.6 mg/kg/injection, schedule: Q01DX009 (ip), vehicle: saline) was 165 % of control, the T/C (dose: 2.0 mg/kg/injection, schedule: Q01DX009 (ip), vehicle: saline with Tween-80) was 161 % of control and the T/C (dose: 4.0 mg/kg/injection, schedule: Q01DX009 (ip), vehicle: saline with Tween-80) was 193 % of control. For the same molecule, the T/C (dose: 7.5 mg/kg/injection, schedule: Q01DX001 (ip), vehicle: saline + alcohol) was 166 % of control, the T/C (dose: 8.0 mg/kg/injection, schedule: Q01DX009 (ip), vehicle: saline with Tween-80) was 123 % of control and the T/C (dose: 15.0 mg/kg/injection, schedule: Q01DX001 (ip), vehicle: saline + alcohol) was 245 % of control. For the same molecule, the T/C (dose: 16.0 mg/kg/injection, schedule: Q01DX009 (ip), vehicle: saline with Tween-80) was 93 % of control.
With `O=C(Nc1ccc2ccccc2c1)c1ccc(Cl)cc1Cl` the T/C (dose: 100.0 mg/kg/injection, schedule: Q04DX003 (ip), vehicle: saline with Tween-80) was 88 % of control, the T/C (dose: 200.0 mg/kg/injection, schedule: Q04DX003 (ip), vehicle: saline with Tween-80) was 91 % of control and the T/C (dose: 400.0 mg/kg/injection, schedule: Q04DX003 (ip), vehicle: saline with Tween-80) was 94 % of control.
